Source: PubChem BioAssay (NCI)
Several values for one entry are separate records, joined by “and”; a condition that tells them apart may be missing. Equal entries are not always repeated.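 Grown in 96-well plates, cells were treated for 48 hours with each compound at five concentrations. Insufficient inhibition: endpoint recorded as highest concentration tested. The concentration for 50% growth inhibition is given as GI50. TGI: concentration producing complete growth inhibition.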

Assays:
Assay in all cases: NCI tumour cell line growth inhibition, 48 h
SK-MEL-5 melanoma = system: SK-MEL-5 melanoma
SNB-75 CNS = system: SNB-75 CNS
SF-268 CNS = system: SF-268 CNS
NCI-H226 lung = system: NCI-H226 lung
HL-60(TB) leukemia = system: HL-60(TB) leukemia
A549 NSCLC = system: A549 NSCLC
SR leukemia = system: SR leukemia
HT29 colon = system: HT29 colon
T-47D breast = system: T-47D breast
SK-OV-3 ovarian = system: SK-OV-3 ovarian

SMILES	TGI (SK-MEL-5 melanoma)	TGI (SNB-75 CNS)	TGI (SF-268 CNS)	TGI (NCI-H226 lung)	TGI (HL-60(TB) leukemia)	TGI (A549 NSCLC)	TGI (SR leukemia)	TGI (HT29 colon)	TGI (T-47D breast)	TGI (SK-OV-3 ovarian)	GI50 (HT29 colon)	GI50 (SK-MEL-5 melanoma)	GI50 (SNB-75 CNS)	GI50 (SF-268 CNS)	GI50 (NCI-H226 lung)	GI50 (HL-60(TB) leukemia)	GI50 (A549 NSCLC)	GI50 (SR leukemia)	GI50 (T-47D breast)	GI50 (SK-OV-3 ovarian)
CSc1ccc2c(c1)N(CCCN(C)C)c1ccccc1S2	25.4 µM	20.8 µM	27.2 µM	43.2 µM	31.3 µM	30.2 µM	19.2 µM	21.1 µM	25.9 µM	29.4 µM	–	–	–	–	–	–	–	–	–	–
CCCC/C=C1/CCC(CN(C)C)C1=O (configuration not stated)	22 µM	6.99 µM	5.91 µM	22.8 µM	4.63 µM	16.5 µM	2.99 µM	4.7 µM	2.64 µM	25.1 µM	2.3 µM	–	–	–	–	–	–	–	–	–
C=C1CCC2C(C)(CO)C(O)CCC2(C)C1C/C=C1\C(=O)OCC1O (configuration not stated)	27.8 µM	30.5 µM	> 100 µM	> 100 µM	> 100 µM	80.9 µM	42.5 µM	25.8 µM	74.7 µM	66.7 µM	–	–	–	–	–	–	–	–	–	–
CNc1ccc(CSc2ccc(C)cc2)cc1	32.6 µM	> 100 µM	> 100 µM	16.4 µM	4.28 µM	> 100 µM	90.1 µM	77.8 µM	> 100 µM	> 100 µM	21.7 µM	13.8 µM	11.9 µM	14.7 µM	3.43 µM	1.32 µM	5.34 µM	6.15 µM	13.5 µM	> 100 µM
O=C([CH-]C(=O)c1ccccc1)c1ccccc1.[CH2-]C.[CH2-]C.[Tl+3]	50.1 µM	> 100 µM	> 100 µM	2.38 µM	21.6 µM	66.3 µM	50.1 µM	> 100 µM	> 100 µM	> 100 µM	26 µM	16.5 µM	25.2 µM	18.4 µM	0.0266 µM	2.99 µM	20.7 µM	6.35 µM	17 µM	32.5 µM
c1ccc2[nH]c(-c3cscn3)nc2c1	> 100 µM	> 100 µM	> 100 µM	> 100 µM	> 100 µM	> 100 µM	> 100 µM	> 100 µM	> 100 µM	> 100 µM	–	–	–	–	–	–	–	> 100 µM and 38.7 µM	–	–
COc1cc(C(=O)Nc2ccc(-c3nc4ccccc4[nH]3)cc2)cc(OC)c1OC	25.9 µM	24.6 µM	37.4 µM	36.7 µM	56.4 µM	27.8 µM	40.9 µM	19.6 µM	23.4 µM	30.6 µM	5.95 µM	11.5 µM	10.9 µM	14.2 µM	15.3 µM	17.8 µM	11.2 µM	6.92 µM	5.39 µM	16.5 µM
COc1ccc2cc1Oc1ccc(cc1)CC1c3c(cc(OC)c4c3Oc3cc5c(cc3O4)CCNC5C2)CCN1C (configuration not stated)	3.98 µM	3.06 µM	3.84 µM	4.18 µM	3.67 µM	4.07 µM	2.51 µM	1.91 µM	3.53 µM	15.5 µM and 3.11 µM	0.626 µM	–	1.68 µM	–	2.3 µM	–	–	–	1.75 µM	1.74 µM
Cc1cc(=O)[nH]c2c1C(=O)c1c(C)cc(=O)n(C)c1C2=O	0.0284 µM	0.0325 µM	0.465 µM	0.0777 µM	0.374 µM	0.399 µM	> 10 µM	0.208 µM	0.848 µM	0.432 µM	–	–	–	–	–	–	–	–	–	–
CC(C)OC(=O)c1cc(NC(=S)OC(C)C)ccc1Cl	33.1 µM	47.5 µM	> 59.6 µM	37.6 µM	> 31.6 µM	> 66.8 µM	> 100 µM	38.6 µM	> 57.6 µM	> 62.6 µM	–	–	–	–	–	–	–	–	–	–
COc1ccc(-c2nn(-c3cccc(Cl)c3)cc2-c2c(C#N)c(=O)n3[nH]c(-c4ccc(C)o4)nc3c2C#N)cc1	12.4 µM	> 50 µM	> 50 µM	> 50 µM	23.5 µM	> 50 µM	22.1 µM	33.6 µM	33.8 µM	> 50 µM	7.21 µM	5.64 µM	1.56 µM	5.23 µM	7.35 µM	4.88 µM	4.57 µM	4.22 µM	2.77 µM	11.7 µM
COc1cc(C(=O)/C=C/c2c(C)n([O-])c3ccc(Cl)cc3[n+]2=O)cc(OC)c1OC	> 100 µM	> 100 µM	98.7 µM	> 100 µM	23.5 µM	> 100 µM	5.65 µM	> 100 µM	27.9 µM	> 100 µM	3.94 µM	12.1 µM	5.18 µM	3.53 µM	32.6 µM	5.76 µM	25.4 µM	1.86 µM	3.18 µM	24.9 µM
COc1ccc(-c2nc3sccn3c2/C=C/C(=O)c2cc(OC)c(OC)c(OC)c2)cc1	2.98 µM	> 20.7 µM	> 100 µM	> 35 µM	82.3 µM	> 22.9 µM	> 28.2 µM	11.8 µM	8.28 µM	24.6 µM	3.22 µM	1.42 µM	1.3 µM	2.76 µM	2.95 µM	3.33 µM	2.92 µM	2.41 µM	1.86 µM	3.13 µM
COc1cc(/C=C/C(=O)/C=C/c2ccc(-n3ccnc3)cc2)ccc1O	12 µM	> 100 µM	16.2 µM	5.8 µM	22.4 µM	15.6 µM	9.24 µM	3.88 µM	9.92 µM	36.1 µM	1.97 µM	3.43 µM	9.96 µM	3.08 µM	2.31 µM	3.29 µM	3.19 µM	1.67 µM	2.98 µM	6.07 µM
O=C(/C=C/c1ccccn1)c1ccccc1	24.8 µM	21 µM	36.4 µM	29.7 µM	6.75 µM	29.4 µM	14.1 µM	4.3 µM	24.4 µM	30.5 µM	1.99 µM	12.1 µM	5.57 µM	19.4 µM	15.2 µM	1.88 µM	14.4 µM	1.96 µM	4.87 µM	16.8 µM
CC(=O)Nc1ccc2c(c1)[nH]c(=O)c1cc(Cl)ccc12	> 100 µM	> 100 µM	> 100 µM	90.4 µM	> 100 µM	> 100 µM	18.4 µM	41.5 µM	> 100 µM	> 100 µM	–	–	–	–	–	–	–	–	–	–
COc1ccc([C@H]2c3[nH]c4ccccc4c3C[C@H]3C(=O)N(CCCCCCC(=O)NO)CC(=O)N23)cc1	6.89 µM	> 33.3 µM	> 33.3 µM	> 33.3 µM	> 33.3 µM	> 33.3 µM	> 33.3 µM	> 33.3 µM	25.6 µM	> 33.3 µM	3.73 µM	1.89 µM	1.12 µM	7.7 µM	6.26 µM	1.19 µM	5.28 µM	1.46 µM	0.952 µM	3.02 µM
CN1CCC(C(=O)Nc2n[nH]c3nnc(-c4ccccc4)cc23)CC1	> 25 µM	> 25 µM	> 25 µM	> 25 µM	> 25 µM	> 25 µM	> 25 µM	> 25 µM	> 25 µM	> 25 µM	> 17.8 µM	14.6 µM	> 5.22 µM	> 25 µM	> 22.3 µM	> 25 µM	> 25 µM	> 25 µM	> 25 µM	16.6 µM
O=[N+]([O-])/C(=C/C=C/c1ccccc1)c1ccccc1	12.1 µM	7.27 µM	8.93 µM	12.4 µM	3.55 µM	6.79 µM	4.05 µM	7.18 µM	5.28 µM	24.4 µM	3.23 µM	3.16 µM	2.22 µM	2.96 µM	6.07 µM	1.09 µM	2.41 µM	1.01 µM	2.07 µM	12 µM
N#CC(C#N)=C/C=C/c1ccccc1[N+](=O)[O-]	> 10 µM	> 10 µM	> 10 µM	> 10 µM	> 10 µM	> 10 µM	> 10 µM	> 10 µM	> 10 µM	> 10 µM	–	–	–	–	–	–	–	–	–	–
COC(=O)c1sc(=S)c2sc(C(=O)OC)c(C(=O)OC)c2c1C(=O)OC	> 100 µM	> 100 µM	> 100 µM	> 100 µM	62.3 µM	> 100 µM	48.2 µM	> 100 µM	> 100 µM	> 100 µM	72.6 µM	39.1 µM	52 µM	58.8 µM	42 µM	21.9 µM	51.2 µM	23.3 µM	77.7 µM	> 100 µM
CCCCCCCC(=O)OC[n+]1cccc(-c2c(COC(=O)NC(C)C)c(COC(=O)NC(C)C)c3n2CCC3)c1	> 100 µM	> 100 µM	> 100 µM	> 100 µM	> 82.1 µM	> 100 µM	> 100 µM	> 100 µM	> 100 µM	> 100 µM	–	–	–	–	–	–	–	–	–	–
CN(C)CC(=O)N1CCc2c([nH]c3ccccc23)C1c1cccnc1 (configuration not stated)	> 100 µM	> 100 µM	> 100 µM	> 100 µM	> 100 µM	> 100 µM	> 100 µM	> 100 µM	> 100 µM	> 100 µM	–	–	–	–	> 100 µM	–	–	–	> 100 µM	–
OCCN1CCCN(CCCN2c3ccccc3Sc3ccc(C(F)(F)F)cc32)CC1	3.09 µM	8.51 µM	15.5 µM	39.1 µM	3.74 µM	15.6 µM	4.75 µM	3.75 µM	5.39 µM	18.4 µM	1.76 µM	1.67 µM	1.21 µM	3.6 µM	15.1 µM	1.91 µM	4.69 µM	2.18 µM	2.21 µM	5.29 µM
Nc1nc2c(ncn2C2OC(CO)C(O)C2O)c(=O)[nH]1 (configuration not stated)	> 100 µM and 103 µM	> 100 µM and 38 µM	> 100 µM and 281 µM	224 µM	> 100 µM and 99.7 µM	> 100 µM and 170 µM	> 100 µM	> 100 µM and 196 µM	> 100 µM	> 100 µM and 263 µM	> 100 µM	> 100 µM	> 100 µM	> 100 µM	–	> 100 µM	> 100 µM and 15.8 µM	> 100 µM	> 100 µM	–
